Data from patent US5527703A (Merck & Co., Inc., priority 1994, dated 1996).

Legend:
[1] = target: T1, GluClα (Caenorhabditis elegans, UniProt G5EBR3); assay: Glutamate current after IVMPO4 current activation, GluClα injected oocytes; assay type: cell-based, C. elegans; set-up: the full-length open reading frame of the GluCl cDNA encoding the GluClα (52,550 kDa) and GluClβ (49,900kDa) subunits; expressed in transfected cells; host or cells: Xenopus laevis oocytes injected with in vitro RNA
T1 sequence (G5EBR3 21-461): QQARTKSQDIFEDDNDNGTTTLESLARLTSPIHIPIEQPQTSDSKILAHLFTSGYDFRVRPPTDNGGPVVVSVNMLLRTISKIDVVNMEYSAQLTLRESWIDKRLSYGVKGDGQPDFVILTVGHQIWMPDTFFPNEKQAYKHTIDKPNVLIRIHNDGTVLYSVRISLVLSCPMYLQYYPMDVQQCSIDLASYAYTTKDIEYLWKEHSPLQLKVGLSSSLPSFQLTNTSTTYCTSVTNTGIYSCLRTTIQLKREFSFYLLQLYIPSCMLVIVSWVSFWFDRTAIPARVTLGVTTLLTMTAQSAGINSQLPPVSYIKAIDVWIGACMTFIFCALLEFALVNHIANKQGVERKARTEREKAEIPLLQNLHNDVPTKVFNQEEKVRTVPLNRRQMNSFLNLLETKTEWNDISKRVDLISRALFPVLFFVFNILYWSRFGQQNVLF
Experimental: (§1) Xenopus laevis oocytes were prepared and injected using standard methods previously described and known in the art [Arena, J. P., Liu. K. K., Paress, P. S. & Cully. D. F. Mol. Pharmacol. 40, 368-374 (1991 ); Arena, J. P., Liu, K. K., Paress, P. S., Schaeffer, J. M. & Cully, D. F. Mol. Brain Res. 15, 339-348 (1992)]. Adult female Xenopus laevis were anesthetized with 0.17% tricaine methanesulfonate and the ovaries were surgically removed and placed in a dish consisting of (mM): NaCl 1 82.5, KCl 2. MgCl2 1, CaCl2 1.8, HEPES 5 adjusted to pH 7.5 with NaOH (OR-2). Ovarian lobes were broken open, rinsed several times, and gently shaken in OR-2 containing 0.2% collagenase (Sigma, Type 1A) for 2-5 hours. […]
(§2) Recordings were made at room temperature 2-10 days after injection. […] Data were acquired and analyzed using PCLAMP with a TL-1 interface (Axon Instruments, Foster City, Calif.). Membrane current at a holding potential of -80 mV was recorded. The amplitude of drug-sensitive current was determined by subtracting the holding current at -80 mV from the peak current obtained in the presence of drug. […] Current/voltage relationships (I/V) and reversal potentials (Erev) were determined using a 1-3 sec voltage ramp over the voltage range of -110 to +80 mV. […]

[2] = target: T2, GluClβ (Caenorhabditis elegans, UniProt Q17328); assay: Modulation of glutamate-sensitive current by IVMPO4, GluClβ injected oocytes; assay type: cell-based, C. elegans
T2 construct: the full-length open reading frame of the GluCl cDNA encoding the GluClα (52,550 kDa) and GluClβ (49,900kDa) subunits; expressed in transfected cells; host or cells: Xenopus laevis oocytes injected with in vitro RNA
T2 sequence (Q17328 23-434): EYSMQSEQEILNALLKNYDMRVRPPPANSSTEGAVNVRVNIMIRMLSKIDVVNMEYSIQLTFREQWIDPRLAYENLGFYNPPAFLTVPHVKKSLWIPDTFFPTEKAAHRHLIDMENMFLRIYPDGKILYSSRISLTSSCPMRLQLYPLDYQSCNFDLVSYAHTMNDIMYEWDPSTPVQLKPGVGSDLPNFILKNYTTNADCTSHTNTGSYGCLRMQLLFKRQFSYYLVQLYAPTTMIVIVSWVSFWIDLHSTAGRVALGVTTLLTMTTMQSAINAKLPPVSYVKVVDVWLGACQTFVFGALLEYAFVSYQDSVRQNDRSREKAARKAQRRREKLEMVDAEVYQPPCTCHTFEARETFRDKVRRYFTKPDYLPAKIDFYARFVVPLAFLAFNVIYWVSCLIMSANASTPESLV
Experimental: as §1, §2

N[C@@H](CCC(=O)O)C(=O)O [glutamate]
lowest glutamate concentrations at which glutamate-sensitive current could be observed ([1]; following IVMPO4 current activation): 10 µM | increase in current with glutamate ([1]; prior activation of current with IVMPO4): 20±4%

ivermectin-4-O-phosphate [IVMPO4]
reduction of glutamate-sensitive current ([2]; following IVMPO4 1 μM): 88±4% | potentiation of glutamate response ([2]; homomeric GluClβ channels): not potentiated
